Results taken from ChEMBL document CHEMBL1201862, “PubChem BioAssay data set” (2004).
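Cells were grown in 96-well plates and exposed to each compound for 48 hours at five concentrations; endpoints were interpolated linearly between bracketing concentrations, or set to the highest concentration if not reached. Here, GI50 denotes the concentration required for 50% inhibition of growth.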 Activity calls are given as the source filed them. Cut-off read from the data, not from the text of the source: active = GI50 up to about 1.1 µM and inactive = higher.

What was measured:
Assay in all cases: inhibition of tumour cell growth, NCI panel, 48 h
A549 = tested on: A549
RPMI-8226 = tested on: RPMI-8226
A498 = tested on: A498
786-0 = tested on: 786-0
MDA-MB-231 = tested on: MDA-MB-231
SR = tested on: SR
HCC 2998 = tested on: HCC 2998
HT-29 = tested on: HT-29
IGROV-1 = tested on: IGROV-1
TK-10 = tested on: TK-10
CCRF-CEM = tested on: CCRF-CEM
UACC-257 = tested on: UACC-257
NCI-H460 = tested on: NCI-H460
CAKI-1 = tested on: CAKI-1
T47D = tested on: T47D
UACC-62 = tested on: UACC-62
NCI/ADR-RES = tested on: NCI/ADR-RES
SK-OV-3 = tested on: SK-OV-3
XF498 = tested on: XF498
DMS-273 = tested on: DMS-273

Compound	GI50 (A549)	GI50 (RPMI-8226)	GI50 (A498)	GI50 (786-0)	GI50 (MDA-MB-231)	GI50 (SR)	GI50 (HCC 2998)	GI50 (HT-29)	GI50 (IGROV-1)	GI50 (TK-10)	GI50 (CCRF-CEM)	GI50 (UACC-257)	GI50 (NCI-H460)	GI50 (CAKI-1)	GI50 (T47D)	GI50 (UACC-62)	GI50 (NCI/ADR-RES)	GI50 (SK-OV-3)	GI50 (XF498)	GI50 (DMS-273)
CC1(O)OC(=O)C2=C1CCC1C2CCC2(C)C(O)CCC12 (centres undefined)	> 100 µM (inactive)	> 100 µM (inactive)	> 100 µM (inactive)	> 100 µM (inactive)	> 100 µM (inactive)	> 100 µM (inactive)	> 100 µM (inactive)	> 100 µM (inactive)	> 100 µM (inactive)	> 100 µM (inactive)	> 100 µM (inactive)	> 100 µM (inactive)	> 100 µM (inactive)	> 100 µM (inactive)	> 100 µM (inactive)	46.3 µM (inactive)	> 100 µM (inactive)			
N#C/C(N)=C(C#N)/N=C/NCc1ccccc1	> 100 µM (inactive)	> 100 µM (inactive)	> 100 µM (inactive)	> 100 µM (inactive)	> 100 µM (inactive)	> 100 µM (inactive)	> 100 µM (inactive)	> 100 µM (inactive)	> 100 µM (inactive)	> 100 µM (inactive)	> 100 µM (inactive)	> 100 µM (inactive)	> 100 µM (inactive)	> 100 µM (inactive)	75.9 µM (inactive)	95.5 µM (inactive)	50.1 µM (inactive)	> 100 µM (inactive)		
Nc1nc(N)c2cc(Sc3ccc4nc(N)nc(N)c4c3)ccc2n1	< 0.01 µM (active)	4.89 µM (inactive)	> 100 µM (inactive)		> 100 µM (inactive)	> 100 µM (inactive)	0.558 µM (active)	0.0933 µM (active)	0.514 µM (active)	> 100 µM (inactive)	0.0194 µM (active)	> 100 µM (inactive)	< 0.0145 µM (active)	> 100 µM (inactive)	> 44.2 µM (inactive)		> 31.6 µM (inactive)	> 100 µM (inactive)		
CC(C)(C)[Si](C)(C)OCC1OC(n2cnc3c(NC(=O)c4ccccc4)ncnc32)CC1O (centres undefined)	42.7 µM (inactive)	21.8 µM (inactive)	32.9 µM (inactive)	21.4 µM (inactive)	22.1 µM (inactive)	25.1 µM (inactive)	27.7 µM (inactive)	36.5 µM (inactive)	33.7 µM (inactive)	58.7 µM (inactive)	22.4 µM (inactive)	39.5 µM (inactive)	32.7 µM (inactive)	49 µM (inactive)	30.2 µM (inactive)	18.7 µM (inactive)	38.9 µM (inactive)	23.2 µM (inactive)		
COC(=O)c1cc2c(cc1CC(Cc1ccc3c(c1)CCC3)C(=O)OC)CCC2 (centres undefined)	34 µM (inactive)	16.5 µM (inactive)	> 100 µM (inactive)	51.4 µM (inactive)	70.6 µM (inactive)	11 µM (inactive)	34.5 µM (inactive)	26.1 µM (inactive)	> 100 µM (inactive)	88.5 µM (inactive)	29.1 µM (inactive)	13.7 µM (inactive)	65.5 µM (inactive)	> 100 µM (inactive)	26.8 µM (inactive)	> 100 µM (inactive)	57.5 µM (inactive)	60.1 µM (inactive)		
O=C1CC(=O)c2c(O)cc(O)c(c2O)-c2c(ccc(O)c2O)C2=CC(=O)c3c(O)cc(O)c(c3O2)-c2c1ccc(O)c2O.O=C1CC2(O)Oc3c1c(O)cc(O)c3-c1c(ccc(O)c1O)-c1cc(=O)c3c(O)cc(O)c(c3o1)-c1c2ccc(O)c1O	> 50 µM (inactive)		> 50 µM (inactive)		> 50 µM (inactive)	> 50 µM (inactive)	> 50 µM (inactive)	> 50 µM (inactive)	> 50 µM (inactive)	> 50 µM (inactive)	> 50 µM (inactive)	> 50 µM (inactive)	> 50 µM (inactive)	> 50 µM (inactive)	> 50 µM (inactive)	> 50 µM (inactive)	> 50 µM (inactive)	> 50 µM (inactive)		
Cc1cc2c(cc1C)N1Cc3c(ccc(C)c3C)N(C2)C1.Cc1cc2c(cc1C)N1Cc3cc(C)c(C)cc3N(C2)C1	> 100 µM (inactive)	> 100 µM (inactive)		> 100 µM (inactive)			> 100 µM (inactive)	> 100 µM (inactive)	> 100 µM (inactive)	> 100 µM (inactive)	> 100 µM (inactive)		> 100 µM (inactive)			> 100 µM (inactive)		> 100 µM (inactive)	> 100 µM (inactive)	> 100 µM (inactive)
C/C(=N\Nc1nc2ccccc2[nH]1)c1cccc[n+]1[O-]	> 100 µM (inactive)	> 100 µM (inactive)	> 100 µM (inactive)	> 100 µM (inactive)	> 100 µM (inactive)	30.1 µM (inactive)	6.55 µM (inactive)	32.1 µM (inactive)	63.4 µM (inactive)	67.1 µM (inactive)	> 100 µM (inactive)	> 100 µM (inactive)	49.2 µM (inactive)	34.5 µM (inactive)	> 100 µM (inactive)	87.1 µM (inactive)	38.5 µM (inactive)	> 100 µM (inactive)		
